Assay results from ChEMBL document CHEMBL5291721, “A preclinical secondary pharmacology resource illuminates target-adverse drug reaction associations of marketed drugs” (Nat Commun, 2023).
“And” between values parts separate entries of the source, which are not always exact repeats. Equal entries are not always repeated.

Columns and labels:
[1] = molecular target: Histamine H3 receptor (Homo sapiens, UniProt Q9Y5N1)
[2] = molecular target: T1, Gamma-aminobutyric acid receptor subunit alpha-1 (Rattus norvegicus, UniProt P62813); type: functional
[3] = molecular target: Histamine H2 receptor (Homo sapiens, UniProt P25021); type: functional, cell-based
[4] = molecular target: Glutamate receptor ionotropic, NMDA 1 (Rattus norvegicus, UniProt P35439)
[5] = molecular target: T2, Type-1 angiotensin II receptor (Homo sapiens, UniProt P30556)
T2 sequence (P30556 whole entry): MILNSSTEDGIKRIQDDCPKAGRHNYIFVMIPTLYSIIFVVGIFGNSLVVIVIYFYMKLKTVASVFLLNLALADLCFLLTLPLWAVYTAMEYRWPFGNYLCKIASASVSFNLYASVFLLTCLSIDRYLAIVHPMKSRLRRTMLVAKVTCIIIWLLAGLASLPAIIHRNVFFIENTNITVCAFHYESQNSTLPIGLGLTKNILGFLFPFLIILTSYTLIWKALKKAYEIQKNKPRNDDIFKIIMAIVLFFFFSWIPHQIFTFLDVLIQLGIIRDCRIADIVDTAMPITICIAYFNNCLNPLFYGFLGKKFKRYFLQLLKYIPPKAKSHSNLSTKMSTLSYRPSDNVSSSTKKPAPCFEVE

[6] = molecular target: Neuronal acetylcholine receptor subunit alpha-4 (Homo sapiens, UniProt P43681)
[7] = molecular target: Sodium-dependent noradrenaline transporter (Homo sapiens, UniProt P23975)
[8] = molecular target: T1, Gamma-aminobutyric acid receptor subunit alpha-1
[9] = molecular target: Motilin receptor (Homo sapiens, UniProt O43193)
[10] = molecular target: T3, 5-hydroxytryptamine receptor 3A (Homo sapiens, UniProt P46098); type: functional
T3 sequence (P46098 whole entry): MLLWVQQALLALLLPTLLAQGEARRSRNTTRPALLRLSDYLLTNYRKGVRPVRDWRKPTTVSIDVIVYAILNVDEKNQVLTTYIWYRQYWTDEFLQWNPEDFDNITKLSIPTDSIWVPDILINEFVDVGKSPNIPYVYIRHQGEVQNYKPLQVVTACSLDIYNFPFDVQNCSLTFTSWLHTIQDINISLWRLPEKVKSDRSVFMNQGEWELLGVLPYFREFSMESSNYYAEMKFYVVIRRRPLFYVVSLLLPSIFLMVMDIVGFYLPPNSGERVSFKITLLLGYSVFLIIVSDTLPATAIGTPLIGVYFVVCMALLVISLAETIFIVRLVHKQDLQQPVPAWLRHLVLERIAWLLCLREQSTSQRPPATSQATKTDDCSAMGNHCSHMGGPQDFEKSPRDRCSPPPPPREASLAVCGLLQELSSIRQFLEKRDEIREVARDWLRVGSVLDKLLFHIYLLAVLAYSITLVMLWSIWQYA

[11] = molecular target: T4, 5-hydroxytryptamine receptor 1A (Homo sapiens, UniProt P08908); type: functional, cell-based
T4 sequence (P08908 whole entry): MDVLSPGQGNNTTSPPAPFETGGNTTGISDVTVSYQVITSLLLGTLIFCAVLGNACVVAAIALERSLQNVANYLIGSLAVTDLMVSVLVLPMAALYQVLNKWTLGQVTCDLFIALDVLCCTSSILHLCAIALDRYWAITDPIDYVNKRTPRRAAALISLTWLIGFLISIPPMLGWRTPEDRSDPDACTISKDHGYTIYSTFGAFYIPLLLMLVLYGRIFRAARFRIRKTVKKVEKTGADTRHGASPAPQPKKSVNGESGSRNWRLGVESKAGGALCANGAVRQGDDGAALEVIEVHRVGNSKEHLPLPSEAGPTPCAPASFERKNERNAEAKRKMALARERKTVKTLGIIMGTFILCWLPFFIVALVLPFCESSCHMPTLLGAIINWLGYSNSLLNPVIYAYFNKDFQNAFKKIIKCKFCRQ

[12] = molecular target: D(3) dopamine receptor (Homo sapiens, UniProt P35462)
[13] = molecular target: T5, Neuropeptide Y receptor type 1 (Homo sapiens, UniProt P25929)
T5 sequence (P25929 whole entry): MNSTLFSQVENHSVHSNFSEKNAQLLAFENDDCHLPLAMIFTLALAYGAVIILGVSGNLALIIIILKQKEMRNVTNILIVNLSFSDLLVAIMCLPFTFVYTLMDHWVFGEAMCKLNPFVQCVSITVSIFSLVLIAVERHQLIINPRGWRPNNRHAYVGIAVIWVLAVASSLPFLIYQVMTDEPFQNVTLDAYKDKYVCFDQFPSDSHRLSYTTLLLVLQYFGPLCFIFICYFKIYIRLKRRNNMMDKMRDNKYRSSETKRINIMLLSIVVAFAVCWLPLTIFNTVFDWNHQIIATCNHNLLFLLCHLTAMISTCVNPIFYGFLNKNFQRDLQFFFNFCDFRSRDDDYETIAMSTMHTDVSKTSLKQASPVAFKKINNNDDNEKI

[14] = molecular target: Histamine H1 receptor (Homo sapiens, UniProt P35367)
[15] = molecular target: Sodium-dependent serotonin transporter (Homo sapiens, UniProt P31645)
[16] = molecular target: T6, Equilibrative nucleoside transporter 1 (Homo sapiens, UniProt Q99808)
T6 sequence (Q99808 whole entry): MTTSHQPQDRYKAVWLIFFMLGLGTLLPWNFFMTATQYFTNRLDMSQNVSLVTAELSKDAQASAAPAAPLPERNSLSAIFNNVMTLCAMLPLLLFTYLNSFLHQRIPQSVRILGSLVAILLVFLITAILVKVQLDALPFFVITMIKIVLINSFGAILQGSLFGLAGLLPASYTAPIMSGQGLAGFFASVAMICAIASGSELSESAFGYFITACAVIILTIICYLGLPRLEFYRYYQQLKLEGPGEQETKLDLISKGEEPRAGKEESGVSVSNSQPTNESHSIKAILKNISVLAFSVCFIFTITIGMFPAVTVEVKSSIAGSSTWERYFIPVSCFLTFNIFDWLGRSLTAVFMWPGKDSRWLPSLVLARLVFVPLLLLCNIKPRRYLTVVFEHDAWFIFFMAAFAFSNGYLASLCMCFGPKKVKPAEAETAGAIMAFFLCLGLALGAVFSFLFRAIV
Further: assay procedure not described here.

Histamine H1 receptor, sequence (P35367 whole entry): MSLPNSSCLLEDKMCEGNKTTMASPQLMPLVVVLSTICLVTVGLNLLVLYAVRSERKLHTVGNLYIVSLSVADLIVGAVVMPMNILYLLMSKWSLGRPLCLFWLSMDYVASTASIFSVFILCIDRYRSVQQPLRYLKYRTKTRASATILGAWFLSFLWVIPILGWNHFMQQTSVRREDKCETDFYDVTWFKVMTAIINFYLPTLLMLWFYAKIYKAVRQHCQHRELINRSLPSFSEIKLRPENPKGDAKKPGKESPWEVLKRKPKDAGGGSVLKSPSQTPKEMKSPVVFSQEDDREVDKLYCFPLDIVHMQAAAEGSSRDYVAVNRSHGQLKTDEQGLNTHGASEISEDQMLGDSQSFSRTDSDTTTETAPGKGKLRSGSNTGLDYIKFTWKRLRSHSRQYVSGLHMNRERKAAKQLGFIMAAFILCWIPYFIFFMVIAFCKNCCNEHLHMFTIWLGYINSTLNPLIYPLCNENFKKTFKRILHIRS
Sodium-dependent noradrenaline transporter, sequence (P23975 whole entry): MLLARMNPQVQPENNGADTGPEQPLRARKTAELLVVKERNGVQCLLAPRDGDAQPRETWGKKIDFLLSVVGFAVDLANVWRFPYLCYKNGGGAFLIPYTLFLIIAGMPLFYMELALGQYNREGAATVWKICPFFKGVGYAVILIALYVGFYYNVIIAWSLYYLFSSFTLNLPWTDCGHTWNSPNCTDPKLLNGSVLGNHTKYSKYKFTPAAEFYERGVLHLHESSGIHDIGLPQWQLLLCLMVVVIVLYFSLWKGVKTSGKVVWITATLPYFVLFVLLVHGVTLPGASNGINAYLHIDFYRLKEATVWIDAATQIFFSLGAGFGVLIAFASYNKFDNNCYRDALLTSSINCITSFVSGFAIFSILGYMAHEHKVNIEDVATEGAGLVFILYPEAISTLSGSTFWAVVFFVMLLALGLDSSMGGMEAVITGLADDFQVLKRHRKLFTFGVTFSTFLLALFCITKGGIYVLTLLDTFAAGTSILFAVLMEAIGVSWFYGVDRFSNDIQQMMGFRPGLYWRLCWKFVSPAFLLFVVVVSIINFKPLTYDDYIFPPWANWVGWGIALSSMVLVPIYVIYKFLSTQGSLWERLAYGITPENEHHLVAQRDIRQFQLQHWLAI
T1 sequence (P62813 whole entry): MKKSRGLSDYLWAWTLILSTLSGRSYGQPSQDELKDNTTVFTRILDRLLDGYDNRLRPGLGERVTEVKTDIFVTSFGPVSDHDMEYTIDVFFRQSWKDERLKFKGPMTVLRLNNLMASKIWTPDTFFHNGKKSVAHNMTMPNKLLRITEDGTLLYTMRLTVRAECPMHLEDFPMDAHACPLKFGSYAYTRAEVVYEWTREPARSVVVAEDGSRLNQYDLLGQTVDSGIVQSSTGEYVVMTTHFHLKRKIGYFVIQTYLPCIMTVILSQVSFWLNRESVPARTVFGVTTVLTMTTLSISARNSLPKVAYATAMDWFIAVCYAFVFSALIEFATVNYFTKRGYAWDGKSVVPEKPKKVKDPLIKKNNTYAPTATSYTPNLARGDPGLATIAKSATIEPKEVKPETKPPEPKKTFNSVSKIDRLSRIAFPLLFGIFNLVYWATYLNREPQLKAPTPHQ
Histamine H2 receptor, sequence (P25021 whole entry): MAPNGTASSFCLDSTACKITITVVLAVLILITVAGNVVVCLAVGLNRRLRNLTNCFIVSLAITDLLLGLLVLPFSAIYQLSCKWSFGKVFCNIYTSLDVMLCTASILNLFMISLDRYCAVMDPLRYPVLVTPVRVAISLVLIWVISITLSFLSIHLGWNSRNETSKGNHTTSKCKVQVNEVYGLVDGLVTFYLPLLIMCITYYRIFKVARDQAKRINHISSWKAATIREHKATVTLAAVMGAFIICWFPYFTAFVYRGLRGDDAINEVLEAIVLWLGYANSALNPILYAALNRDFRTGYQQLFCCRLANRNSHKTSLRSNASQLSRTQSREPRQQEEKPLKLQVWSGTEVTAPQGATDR
Histamine H3 receptor, sequence (Q9Y5N1 whole entry): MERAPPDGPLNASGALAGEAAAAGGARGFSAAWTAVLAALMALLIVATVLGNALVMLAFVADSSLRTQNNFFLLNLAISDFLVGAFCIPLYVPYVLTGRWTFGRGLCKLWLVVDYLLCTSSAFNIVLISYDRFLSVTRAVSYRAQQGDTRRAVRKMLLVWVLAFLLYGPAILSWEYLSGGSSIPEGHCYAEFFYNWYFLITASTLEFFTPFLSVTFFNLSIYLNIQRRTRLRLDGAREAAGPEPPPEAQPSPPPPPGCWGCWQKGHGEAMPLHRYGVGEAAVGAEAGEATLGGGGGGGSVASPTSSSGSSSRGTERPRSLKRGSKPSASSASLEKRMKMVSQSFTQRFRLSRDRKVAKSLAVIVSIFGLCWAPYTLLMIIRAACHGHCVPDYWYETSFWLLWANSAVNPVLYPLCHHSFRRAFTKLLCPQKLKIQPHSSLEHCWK
Sodium-dependent serotonin transporter, sequence (P31645 whole entry): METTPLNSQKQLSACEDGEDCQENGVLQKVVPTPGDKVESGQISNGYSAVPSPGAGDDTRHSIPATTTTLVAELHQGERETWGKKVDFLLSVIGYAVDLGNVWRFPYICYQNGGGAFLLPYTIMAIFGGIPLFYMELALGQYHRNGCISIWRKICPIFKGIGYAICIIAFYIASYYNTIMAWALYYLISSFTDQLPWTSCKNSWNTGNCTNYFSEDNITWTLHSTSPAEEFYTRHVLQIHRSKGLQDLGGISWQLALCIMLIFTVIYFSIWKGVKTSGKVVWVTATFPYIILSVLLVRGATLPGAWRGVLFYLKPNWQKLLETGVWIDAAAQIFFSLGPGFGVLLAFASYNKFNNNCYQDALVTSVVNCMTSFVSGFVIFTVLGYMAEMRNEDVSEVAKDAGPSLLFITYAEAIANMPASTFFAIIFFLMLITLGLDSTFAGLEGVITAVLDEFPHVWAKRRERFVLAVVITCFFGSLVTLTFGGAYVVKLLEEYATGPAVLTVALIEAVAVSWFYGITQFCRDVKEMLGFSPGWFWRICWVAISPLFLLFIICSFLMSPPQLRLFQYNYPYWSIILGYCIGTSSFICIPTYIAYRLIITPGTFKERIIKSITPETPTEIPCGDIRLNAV
D(3) dopamine receptor, sequence (P35462 whole entry): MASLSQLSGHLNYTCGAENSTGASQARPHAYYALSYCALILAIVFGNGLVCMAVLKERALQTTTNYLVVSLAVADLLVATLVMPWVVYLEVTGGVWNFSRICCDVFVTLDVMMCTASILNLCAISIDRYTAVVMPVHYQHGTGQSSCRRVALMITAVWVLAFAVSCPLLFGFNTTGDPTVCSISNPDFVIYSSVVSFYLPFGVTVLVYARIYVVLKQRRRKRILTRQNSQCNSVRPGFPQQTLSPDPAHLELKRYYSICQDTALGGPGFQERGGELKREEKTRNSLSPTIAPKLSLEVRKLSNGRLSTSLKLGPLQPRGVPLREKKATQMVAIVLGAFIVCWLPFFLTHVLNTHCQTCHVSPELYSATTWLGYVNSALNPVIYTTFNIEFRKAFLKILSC
Motilin receptor, sequence (O43193 whole entry): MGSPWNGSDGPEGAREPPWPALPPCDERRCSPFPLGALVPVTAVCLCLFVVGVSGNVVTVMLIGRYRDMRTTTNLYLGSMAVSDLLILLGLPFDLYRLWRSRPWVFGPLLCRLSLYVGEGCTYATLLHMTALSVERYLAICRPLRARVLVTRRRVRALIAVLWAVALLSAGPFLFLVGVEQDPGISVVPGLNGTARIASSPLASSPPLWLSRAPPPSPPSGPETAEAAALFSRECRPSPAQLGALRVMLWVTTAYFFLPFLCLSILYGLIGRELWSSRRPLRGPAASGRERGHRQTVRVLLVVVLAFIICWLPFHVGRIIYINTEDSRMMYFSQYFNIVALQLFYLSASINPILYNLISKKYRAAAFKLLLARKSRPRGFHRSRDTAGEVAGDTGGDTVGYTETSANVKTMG
Neuronal acetylcholine receptor subunit alpha-4, sequence (P43681 whole entry): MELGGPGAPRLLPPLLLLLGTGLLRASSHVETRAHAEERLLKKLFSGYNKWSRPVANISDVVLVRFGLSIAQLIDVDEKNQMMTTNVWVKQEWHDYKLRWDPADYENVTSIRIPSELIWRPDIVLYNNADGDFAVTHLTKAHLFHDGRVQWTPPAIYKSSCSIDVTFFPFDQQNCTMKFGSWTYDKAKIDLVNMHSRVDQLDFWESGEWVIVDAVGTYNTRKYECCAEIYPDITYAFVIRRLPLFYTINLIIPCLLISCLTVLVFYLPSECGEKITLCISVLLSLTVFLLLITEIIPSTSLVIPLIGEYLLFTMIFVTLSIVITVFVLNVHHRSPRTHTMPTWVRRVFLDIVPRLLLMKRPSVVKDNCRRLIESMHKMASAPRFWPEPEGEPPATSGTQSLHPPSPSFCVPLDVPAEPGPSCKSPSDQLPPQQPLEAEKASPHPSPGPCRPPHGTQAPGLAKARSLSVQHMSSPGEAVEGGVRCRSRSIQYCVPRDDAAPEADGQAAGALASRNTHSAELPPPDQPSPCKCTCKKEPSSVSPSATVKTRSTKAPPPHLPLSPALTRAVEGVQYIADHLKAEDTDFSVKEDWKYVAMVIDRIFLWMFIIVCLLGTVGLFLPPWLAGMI

Row | Structure (SMILES) | AC50 [1] [µM] | AC50 [2] [µM] | AC50 [3] [µM] | AC50 [4] [µM] | AC50 [5] [µM] | AC50 [6] [µM] | AC50 [7] | AC50 [8] [µM] | AC50 [9] [µM] | AC50 [10] [µM] | AC50 [11] [µM] | AC50 [12] [µM] | AC50 [13] [µM] | AC50 [14] [µM] | AC50 [15] [µM] | AC50 [16] [µM]
1 | NC(=O)CCC/N=C(\c1ccc(Cl)cc1)c1cc(F)ccc1O [PROGABIDE] | > 10 | > 10 | > 10 | > 10 | > 10 | > 10 | > 10 µM | > 10 | > 10 | > 30 | > 10 | > 30 | > 10 | > 10 | > 10 | > 10
2 | CC(NCCc1ccc(O)cc1)C(O)c1ccc(O)cc1 (configuration not stated) [RITODRINE] | > 30 | > 30 | > 30 | > 30 | > 30 | > 30 | 23 µM and 37.6 µM | > 30 | > 30 | > 30 | > 10 | > 30 | > 30 | > 30 | 16.3 | > 30
